Experimental findings from ChEMBL document CHEMBL1125092, “Nonneurotoxic tetralin and indan analogues of 3,4-(methylenedioxy)amphetamine (MDA)” (J Med Chem, 1990) are described below.

What all share (format): functional
The subject of experiment [1] is Rattus norvegicus. In words: Hallucinogenic property was determined in groups of LSD trained rats and percentage of animals disrupted was reported at a dose 4.10 (umol/kg),(number of animals = 10).
Experiment [2] deals with Rattus norvegicus. In words: Percentage of animals disrupted in groups of MDMA trained rats at a dose of 4.10 (umol/kg),(number of animals = 8).
Experiment [3] concerns Rattus norvegicus. The experiment can be described thus: Percentage of animals disrupted in groups of MDMA trained rats at a dose of 8.21 (umol/kg),(number of animals = 9).
The subject of experiment [4] is Rattus norvegicus. The experiment can be described thus: Percentage of animals disrupted was determined in groups of LSD trained rat at a dose of 18.46 (umol/kg),(no. of animals=9).
The subject of experiment [5] is Rattus norvegicus. In words: Percentage of animals disrupted was determined in groups of LSD trained rat at a dose of 6.15 (uM/kg), (no.of animals = 11).
Experiment [6] has as its system Rattus norvegicus. In words: Percentage of animals disrupted was determined in groups of LSD trained rat at a dose of 8.21 (umol/kg),(no. of animals = 8).
Experiment [7] relates to Rattus norvegicus. In words: Percentage of animals disrupted in groups of MDMA trained rats at a dose of 12.31 (umol/kg),(number of animals = 8).
Experiment [8] deals with Rattus norvegicus. The experiment can be described thus: Percentage of animals disrupted in groups of MDMA trained rats at a dose of 16.41 (umol/kg),(number of animals = 11).
Experiment [9] has as its system Rattus norvegicus. The experiment can be described thus: Percentage of animals disrupted in groups of MDMA trained rats at a dose of 17.44 (umol/kg),(number of animals = 11).
The subject of experiment [10] is Rattus norvegicus. The experiment can be described thus: Percentage of animals disrupted in groups of MDMA trained rats at a dose of 20.51 (umol/kg),(number of animals = 7).
Experiment [11] has as its system Rattus norvegicus. The experiment can be described thus: Tested for stimulus generation in rats trained to discriminate LSD from saline at a dose 16.41(.umol/kg),(number of animals = 11).
Experiment [12] has as its system Rattus norvegicus. The experiment can be described thus: Tested for stimulus generation in rats trained to discriminate LSD from saline at 4.10 (umol/kg),(number of animals = 10).
The subject of experiment [13] is Rattus norvegicus. In words: Tested for stimulus generation in rats trained to discriminate LSD from saline at a 18.46 (umol/kg),(number of animals = 9).
Experiment [14] has as its system Rattus norvegicus. In words: Tested for stimulus generation in rats trained to discriminate +/-MDMA from saline at 8.21 (umol/kg),(number of animals = 9).
Experiment [15] has as its system Rattus norvegicus. The experiment can be described thus: Tested for stimulus generation in rats trained to discriminate LSD from saline at a dose 6.15 (umol/kg),(number of animals = 11).
The subject of experiment [16] is Rattus norvegicus. The experiment can be described thus: Tested for stimulus generation in rats trained to discriminate LSD from saline at a dose 8.21 (umol/kg),(number of animals = 8).
For experiment [17], the system named is Rattus norvegicus. The experiment can be described thus: Tested for stimulus generation in rats trained to discriminate +/-MDMA from saline at 12.31 (umol/kg),(number of animals = 8).
Experiment [18] concerns Rattus norvegicus. The experiment can be described thus: Tested for stimulus generation in rats trained to discriminate +/-MDMA from saline at 16.41(.umol/kg),(number of animals = 11).
The test system of experiment [19] is Rattus norvegicus. In words: Tested for stimulus generation in rats trained to discriminate +/-MDMA from saline at 4.10 (umol/kg),(number of animals = 8).
For experiment [20], the system named is Rattus norvegicus. In words: Tested for stimulus generation in rats trained to discriminate +/-MDMA from saline at 17.44i (umol/kg),(number of animals = 11).
Experiment [21] concerns Rattus norvegicus. The experiment can be described thus: Percentage of animals disrupted was determined in groups of LSD trained rat at a dose of 16.41 (umol/kg),(no. of animals=11).

On to `COc1cc(C)c(OC)c2c1CC(N)C2` (stereo unspecified), for which the D in the experiment with Rattus norvegicus [1] stood at 0%; in the experiment with Rattus norvegicus [2], 0%; in the experiment on Rattus norvegicus [3] it was 11%; in the experiment on Rattus norvegicus [4] it was 0%; in the experiment on Rattus norvegicus [5] it was 27%; in the experiment on Rattus norvegicus [6], 0%. In addition, the D in the experiment with Rattus norvegicus [7] stood at 0%; in the experiment with Rattus norvegicus [8] it was 27%; with Rattus norvegicus [9] it was 27%; in the experiment with Rattus norvegicus [10], 71%; in the experiment on Rattus norvegicus [21] it was 27%. Besides, the SDL is 63% with Rattus norvegicus [11]; 20% in the experiment on Rattus norvegicus [12]; 89% in the experiment with Rattus norvegicus [13]; 38% in the experiment on Rattus norvegicus [14]; 38% with Rattus norvegicus [15]; 38% in the experiment on Rattus norvegicus [16]. Besides, the SDL with Rattus norvegicus [17] is reported as 25%; in the experiment on Rattus norvegicus [18] it was 75%; in the experiment on Rattus norvegicus [19] it was 13%; in the experiment on Rattus norvegicus [20] it was 50%.
